Tests used:
[1] = tested on: isolated SUR1-/- neurons; assay type: cell-based, mice
[2] = tested on: NPY-GFP neurons in hypothalamic slices; assay type: cell-based, mice
[3] = target: growth hormone secretagogue receptor (mouse (endogenous in NPY-GFP neurons)) (UniProt Q99P50)
growth hormone secretagogue receptor (mouse (endogenous in NPY-GFP neurons)), sequence (Q99P50 whole entry): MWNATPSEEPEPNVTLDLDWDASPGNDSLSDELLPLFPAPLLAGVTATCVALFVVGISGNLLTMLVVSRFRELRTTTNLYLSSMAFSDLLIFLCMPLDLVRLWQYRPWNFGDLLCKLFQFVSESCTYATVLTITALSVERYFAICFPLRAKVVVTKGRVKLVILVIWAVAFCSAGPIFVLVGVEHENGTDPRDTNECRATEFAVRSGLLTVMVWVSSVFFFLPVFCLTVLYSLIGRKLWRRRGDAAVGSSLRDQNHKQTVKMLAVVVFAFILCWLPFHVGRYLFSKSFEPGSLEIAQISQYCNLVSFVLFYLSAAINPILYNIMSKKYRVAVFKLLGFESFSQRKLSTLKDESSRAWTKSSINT

For CC1=NS(=O)(=O)c2cc(Cl)ccc2N1 [diazoxide], the “stimulation of an increase in [Ca2+]c” value ([1]; diazoxide 200 μM, neurons from SUR1-/- mice) was “not”.

NC1=N[C@H](O)[C@H]2[C@H]3O[C@]4(O)O[C@@H]([C@@H](O)[C@@]2(N1)[C@@H]4O)[C@]3(O)CO [TTX, tetrodotoxin] was tested, and the “effect on ghrelin-induced changes in MP and IR” value [2] was “reduces these ghrelin-induced changes in both MP and IR”.

In the case of COc1ccc(Cl)cc1C(=O)NCCc1ccc(S(=O)(=O)NC(=O)NC2CCCCC2)cc1 [glibenclamide], the “effect on ghrelin action” value ([1]; glibenclamide 1 μM, ghrelin 200 pM, neurons from SUR1-/- mice) is reported as “no significant effect on ghrelin action”.

Acylated ghrelin (peptide) was tested, and the EC50 of the rise of [Ca2+]c (fura-2) in isolated NPY-GFP neurons, from averages of the peak heights at each ghrelin concentration [3] was 0.11 nM.

For CCCCCCCC(=O)OC[C@H](NC(=O)[C@H](CO)NC(=O)CN)C(=O)N[C@@H](Cc1ccccc1)C(=O)N[C@@H](CC(C)C)C(=O)N[C@@H](CO)C(=O)N1CCC[C@H]1C(=O)N[C@@H](CCC(=O)O)C(=O)N[C@@H](Cc1c[nH]cn1)C(=O)N[C@@H](CCC(N)=O)C(=O)N[C@@H](CCCNC(=N)N)C(=O)N[C@H](C(=O)N[C@@H](CCC(N)=O)C(=O)N[C@@H](CCC(N)=O)C(=O)N[C@@H](CCCNC(=N)N)C(=O)N[C@@H](CCCCN)C(=O)N[C@@H](CCC(=O)O)C(=O)N[C@@H](CO)C(=O)N[C@@H](CCCCN)C(=O)N[C@@H](CCCCN)C(=O)N1CCC[C@H]1C(=O)N1CCC[C@H]1C(=O)N[C@@H](C)C(=O)N[C@@H](CCCCN)C(=O)N[C@@H](CC(C)C)C(=O)N[C@@H](CCC(N)=O)C(=O)N1CCC[C@H]1C(=O)N[C@@H](CCCNC(=N)N)C(=O)O)C(C)C [ghrelin], the “average IR decrease” value [2] was -108 ± 60 MΩ, the “ghrelin-induced changes in MP and IR in the presence of TTX” value [2] was “persistent, albeit diminished” and the “neurons depolarized due to decreases in IR” value [2] was ~ 70%. For the same compound, the “neurons depolarized with increases in IR” value [2] was 7/22, the “average ΔMP (MP +ghrelin minus MP w/o ghrelin)” value ([2]; SD) was 3.6 ± 1.7 mV and the “effect on [Ca2+]c” value [1] was “reversibly stimulated an increase in [Ca^2+]c in a subset of isolated SUR1^-/- neurons”.
